Results from patent US20230312646A1, “ANTIBACTERIAL PEPTIDES” (priority 2020, published 2023).
Like-named read-outs stand apart in the source and are kept apart here. Numbered stars: 1 amine (or outer) side, 2 acyl side, 3 side chain; on linkers, the order of the positions; unused ones are H or OH. Square brackets hold non-standard residues; d marks the D form. Peptide text beside a SMILES is read from it. * marks the point of attachment. ξ: configuration not given here. NEtAsp = CCN([C@@H](CC(=O)[*:3])C(=O)[*:2])[*:1]; ACHC(1S,2S) = O=C([C@H]1CCCC[C@@H]1N[*:1])[*:2]; Acryloyl(3-(3-pyridyl),E) = O=C(/C=C/c1cccnc1)*; Caffeoyl = O=C(/C=C/c1ccc(O)c(O)c1)*; Hydrocinnamoyl = O=C(CCc1ccccc1)*; NMeF = CN[C@@H](Cc1ccccc1)C(=O)O; NMeQ = CN[C@@H](CCC(N)=O)C(=O)O; Cha = N[C@@H](CC1CCCCC1)C(=O)O; NMeD = CN[C@@H](CC(=O)O)C(=O)O; X1 = O=C(/C=C/c1ccc2ccccc2c1)*; ξOic = O=C(O)C1CC2CCCCC2N1; Sar = CNCC(=O)O

Target: T1, Escherichia coli SC (^EcSC) (Escherichia coli, UniProt P0A988)
T1 construct: His tag (inferred from the pET15b vector and Ni-NTA purification) (N); made in house; host or cells: E. coli
Assay: biochemical
Type: binding
Conditions: for ΔG (kcal/mol) / Kd: ITC at 298.15 K (25° C.); for Kd: Kd (nM); for ΔG (kcal mol^-1): ITC at 25° C.
Method: The procedure has been described previously (Wolff, P.; Oliéric, V.; Briand, J. P.; Chaloin, O.; Dejaegere, A.; Dumas, P.; Ennifar, E.; Guichard, G.; Wagner, J.; Burnouf, D. Y., Structure-Based Design of Short Peptide Ligands Binding onto the E. coli Processivity Ring. J. Med. Chem. 2011, 54 (13), 4627-4637). Briefly, E.coli cells were transformed with plasmids pET15b containing the dnaN gene from E. coli and were grown in LB at 37° C. to OD 0.5, then induced by IPTG (0.1 mM) at 28° C. overnight. dnaN proteins fractions were first enriched on a Ni-NTA column, eluted with a histidine step (300 mM) and further purified on a Source Q column in buffer containing 20 mM Tris HCI pH 7.5, 0.5 mM EDTA and 10% (v/v) glycerol, using a gradient from 0 to 0.5 M NaCl. After a final ultracentrifugation (45 K, 1 h, 20° C.), soluble proteins were concentrated on a Centricon 30 K (Millipore) in the same buffer and stored at 4° C. in 2 M ammonium sulfate. Buffer exchange was performed on Centrikon 10 K at 4° C. before use and protein quality was assessed by DLS.
ITC experiments were performed using an iTC200 or a PEAQ-ITC instrument (Microcal Malvern Panalytical). Peptides (300 or 600 µM) were titrated at 25° C. by sequential injections (usually 2 µl each) into an SC solution (30 or 60 µM). Data were corrected for heat of injection by subtracting the signal of the titration of peptides into proteiN-free buffer solution (Hepes 10 mM pH 7.4, NaCl 0.15 M, EDTA 3 mM). Each titration was performed at least twice. Analyses of experimental data were performed following a classical treatment with the AFFINImeter software (https://www.affinimeter.com; S4S, Santiago de Compostela, Spain). In addition, kinetic information was obtained in some cases with kinITC as implemented in the software AFFINImeter.
All newly synthesized peptides were tested for their interaction with ^EcSC by ITC at 25° C. As a general rule, all thermodynamic profiles reveal an exothermic interaction, and a non-favorable entropic component. The resulting negative Gibb’s free energies characterize a spontaneous interaction. The analysis of raw data by the Affinimeter® software also gave access to kinetics rate constant of the interaction.

T1 sequence (P0A988 whole entry): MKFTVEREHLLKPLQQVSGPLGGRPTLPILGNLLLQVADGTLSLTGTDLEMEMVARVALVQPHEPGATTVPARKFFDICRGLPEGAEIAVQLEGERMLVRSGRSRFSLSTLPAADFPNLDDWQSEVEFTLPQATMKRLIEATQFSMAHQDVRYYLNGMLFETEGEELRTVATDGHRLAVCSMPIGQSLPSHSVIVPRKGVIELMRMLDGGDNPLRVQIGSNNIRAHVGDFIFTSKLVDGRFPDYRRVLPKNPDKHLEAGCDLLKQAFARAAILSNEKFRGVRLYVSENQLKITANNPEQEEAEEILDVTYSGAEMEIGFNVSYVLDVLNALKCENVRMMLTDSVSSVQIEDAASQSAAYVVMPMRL

Question: `CC(=O)N[C@@H](CCC(N)=O)C(=O)N[C@@H](CC1CCCCC1)C(=O)N[C@@H](CC(=O)O)C(=O)N[C@@H](CC(C)C)C(=O)N[C@H]1CCCC[C@@H]1C(=O)N[C@@H](CC(C)C)C(=O)O` [P31] (Ac-Q[Cha]DL[ACHC(1S,2S)]L-OH) was tested. Which “ΔG (kcal/mol)” value did it give?
Answer: The value was -7.4 (± 0.2) kcal/mol.

Question: And the Kd?
Answer: The Kd was 4070 nM.

Question: And the kon (read-out: kon (M^-1.s^-1))?
Answer: The kon was 7400 M⁻¹ s⁻¹.

Question: How did the “ΔG (kcal/mol)” value turn out when `CC(=O)N[C@@H](CCC(N)=O)C(=O)N[C@@H](CC1CCCCC1)C(=O)N[C@@H](CC(=O)O)C(=O)N[C@@H](CC(C)C)C(=O)N(C)CC(=O)N[C@@H](CC(C)C)C(=O)O` [P30] (Ac-Q[Cha]DL[Sar]L-OH) was run?
Answer: Its value is -8.5 (± 0.2) kcal/mol.

Question: And the Kd?
Answer: The Kd was 583 nM.

Question: What about the kon (read-out: kon (M^-1.s^-1)) of the same compound?
Answer: Its kon is 40000 M⁻¹ s⁻¹.

Question: Which “ΔG (kcal/mol)” value does the source give for `CC(=O)N[C@@H](CCC(N)=O)C(=O)N[C@@H](CC1CCCCC1)C(=O)N[C@@H](CC(=O)O)C(=O)N[C@@H](CC(C)C)C(=O)N(C)[C@@H](Cc1ccccc1)C(=O)O` [P7] (Ac-Q[Cha]DL[NMeF]-OH) here?
Answer: The value was -7.1 (± 0.1) kcal/mol.

Question: What about the Kd of the same compound?
Answer: Its Kd is over 1000 nM.

Question: And the kon (read-out: kon (M^-1.s^-1))?
Answer: The kon was 10000 M⁻¹ s⁻¹.

Question: Which “ΔG (kcal/mol)” value does the source give for `CCN(C(=O)[C@H](CC1CCCCC1)NC(=O)[C@H](CCC(N)=O)NC(C)=O)[C@@H](CC(=O)O)C(=O)N[C@@H](CC(C)C)C(=O)N[C@@H](Cc1ccccc1)C(=O)O` [P5] (Ac-Q[Cha][NEtAsp]LF-OH) here?
Answer: The value was -8.57 (± 0.07) kcal/mol.

Question: And the Kd?
Answer: Its Kd is 523 nM.

Question: What about the kon (read-out: kon (M^-1.s^-1)) of the same compound?
Answer: The kon was 28800 M⁻¹ s⁻¹.

Question: How did the “ΔG (kcal/mol)” value turn out when `CC(C)C[C@H](NC(=O)[C@H](CC(=O)O)NC(=O)[C@H](CC1CCCCC1)NC(=O)[C@H](CCC(N)=O)NC(=O)/C=C/c1cccnc1)C(=O)N[C@@H](Cc1ccccc1)C(=O)O` [P16] ({Acryloyl(3-(3-pyridyl),E)}-Q[Cha]DLF-OH) was run?
Answer: The value was -9.3 (± 0.2) kcal/mol.

Question: And the Kd?
Answer: The Kd was 156 nM.

Question: And the kon (read-out: kon (M^-1.s^-1))?
Answer: Its kon is 46000 M⁻¹ s⁻¹.

Question: How did the Kd turn out when `CC(C)C[C@H](NC(=O)[C@H](CC(=O)O)NC(=O)[C@H](CC1CCCCC1)NC(=O)[C@H](CCC(N)=O)NC(=O)CCc1ccccc1)C(=O)N[C@@H](Cc1ccccc1)C(=O)O` [P19] (Hydrocinnamoyl-Q[Cha]DLF-OH) was run?
Answer: The Kd was 123 nM.

Question: And the kon (read-out: kon (M^-1.s^-1))?
Answer: The kon was 55000 M⁻¹ s⁻¹.

Question: With `CC(=O)N[C@@H](CCC(N)=O)C(=O)N[C@@H](CC1CCCCC1)C(=O)N[C@H](C(=O)N[C@@H](CC(C)C)C(=O)N[C@@H](Cc1ccccc1)C(=O)O)[C@@H](C)O` [Asp to Thr substitution] (Ac-Q[Cha]TLF-OH) as the compound, how does the “ΔG (kcal/mol)” value read?
Answer: Its value is -9.2 (+/- 0.1) kcal/mol.

Question: And the Kd?
Answer: Its Kd is 180 nM.

Question: What does the source list for `CC(=O)N(C)[C@@H](CCC(N)=O)C(=O)N[C@@H](CC1CCCCC1)C(=O)N[C@@H](CC(=O)O)C(=O)N[C@@H](CC(C)C)C(=O)N[C@@H](Cc1ccccc1)C(=O)O` [P2] (Ac-[NMeQ][Cha]DLF-OH)?
Answer: ΔG (kcal/mol): -7.7 (± 0.2) kcal/mol; Kd: > 1000 nM; kon (read-out: kon (M^-1.s^-1)): 21000 M⁻¹ s⁻¹

Question: What does the source list for `CC(C)C[C@H](NC(=O)[C@H](CC(=O)O)NC(=O)[C@H](CC1CCCCC1)NC(=O)[C@H](CCC(N)=O)NC(=O)/C=C/c1ccc2ccccc2c1)C(=O)N[C@@H](Cc1ccccc1)C(=O)O` [P20] (X1-Q[Cha]DLF-OH)?
Answer: Kd: 89 nM; kon (read-out: kon (M^-1.s^-1)): 65000 M⁻¹ s⁻¹

Question: Which “ΔG (kcal mol^-1)” value does the source give for `CC(C)C[C@H](NC(=O)[C@@H]1CCCN1C(=O)[C@H](CC(C)C)NC(=O)[C@H](CC(=O)O)N(C)C(=O)[C@H](CC1CCCCC1)NC(=O)[C@H](CCC(N)=O)NC(=O)/C=C/c1cccnc1)C(=O)O` [P44] ({Acryloyl(3-(3-pyridyl),E)}-Q[Cha][NMeD]LPL-OH) here?
Answer: The value was -9.2 (± 0.1) kcal mol^-1.

Question: What about the Kd of the same compound?
Answer: The Kd was 177 nM.

Question: What about the kon (read-out: kon (M^-1 s^-1)) of the same compound?
Answer: The kon was 63000 M⁻¹ s⁻¹.

Question: For `CC(=O)N[C@@H](CCC(N)=O)C(=O)N[C@@H](CC1CCCCC1)C(=O)N(C)[C@@H](CC(=O)O)C(=O)N[C@@H](CC(C)C)C(=O)N1CCC[C@H]1C(=O)N[C@@H](CC(C)C)C(=O)O` [P42] (Ac-Q[Cha][NMeD]LPL-OH), which “ΔG (kcal mol^-1)” value is on record?
Answer: Its value is -9.0 (± 0.2) kcal mol^-1.

Question: And the Kd?
Answer: Its Kd is 263 nM.

Question: What about the kon (read-out: kon (M^-1 s^-1)) of the same compound?
Answer: The kon was 100000 M⁻¹ s⁻¹.

Question: How did the kon (read-out: kon (M^-1 s^-1)) turn out when `CC(=O)N[C@@H](CCC(N)=O)C(=O)N[C@@H](CC1CCCCC1)C(=O)N[C@@H](CC(=O)O)C(=O)N[C@@H](CC(C)C)C(=O)N1C(C(=O)N[C@@H](CC(C)C)C(=O)O)CC2CCCCC21` (stereo partly drawn) [P47] (Ac-Q[Cha]DL[ξOic]L-OH) was run?
Answer: The kon was 71000 M⁻¹ s⁻¹.

Question: What does the source list for `CC(C)C[C@H](NC(=O)[C@H](CC(=O)O)NC(=O)[C@H](CC1CCCCC1)NC(=O)[C@H](CCC(N)=O)NC(=O)/C=C/c1ccc(O)c(O)c1)C(=O)N[C@@H](Cc1ccccc1)C(=O)O` [P21] (Caffeoyl-Q[Cha]DLF-OH)?
Answer: Kd: 99 nM; kon (read-out: kon (M^-1.s^-1)): 46000 M⁻¹ s⁻¹
